# Experimental data from ChEMBL document CHEMBL1201862, “PubChem BioAssay data set” (2004).
# Activity calls are given as the source filed them.
# What was measured:
# [1] = inhibitors of firefly luciferase expression or activity, dose response, H4 neuroglioma cells, luminescence (AID 1990); assay type: functional, cell-based
# [2] = Luminescence Cell-Based Dose Response HTS to Identify Inhibitors of 5'UTR Stem-Loop Driven Prion Protein mRNA Translation in H4 Neuroglioblastoma Cells. [Related pubchem assays: 1827 (Project Summary), 1813 (Primary HTS)]; assay type: functional
# [3] = inhibitors of SNCA 5'UTR-driven reporter translation, confirmation, H4 neuroglioma cells, luminescence (AID 1988); assay type: functional, cell-based
# [4] = inhibitors of intracellular T. cruzi replication, confirmation, NIH3T3 host cells, beta-gal luminescence (AID 2044); assay type: functional, cell-based;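 further: intracellular parasites grown in NIH/3T3 mouse fibroblasts as host cells; luminescent beta-galactosidase reporter signal from transgenic T. cruzi replicating inside host cells; inhibitors lower the luminescence signal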
# [5] = microbe, parasite or virus in culture; assay type: functional; conditions: Mycobacterium tuberculosis
# [6] = cytotoxicity toward NIH3T3 fibroblasts, dose response, counter-screen, cell-based, ATP luminescence, mouse fibroblasts (AID 2010); assay type: functional;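 further: cells exposed to compound for about 90 hours before reading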
# [7] = system: INS1; assay: beta cell apoptosis inhibitors, cytokine rescue, dose response, luminescence, retest (AID 449756); assay type: functional, cell-based; conditions: Rattus norvegicus;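 further: cell death triggered by IL-1 beta plus TNF-alpha plus IFN-gamma mixture; protective hits raise ATP signal compared with cytokine alone wells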
# [8] = Shn3 3'UTR reporter inhibitors, dose response, cell-based, Clone20 osteoblasts, firefly luciferase, cherry-picked (AID 624132); assay type: functional;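 further: firefly luciferase luminescence from reporter carrying the Shn3 3'UTR in osteoblasts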
# [9] = HepG2 cell cytotoxicity, dose response, cytotoxicity control for Shn3 inhibitor project, CellTiter-Glo, cherry-picked (AID 624134); assay type: functional, cell-based
# [10] = control 3'UTR Renilla luciferase suppression, dose response, counter-screen for Shn3 inhibitor project, cell-based, Clone20-Shn3RL, cherry-picked (AID 624133); assay type: functional
# [11] = HEp-2 cell cytotoxicity, dose response, cytotoxicity control for RSV inhibitor project, HTS (AID 2410); assay type: functional; conditions: human respiratory syncytial virus
# [12] = Luminescence Cell-Based Dose Response HTS to Identify Activators of Luciferase Translation or Activity in H4 […] Cells. [Related pubchem assays: 1829 (Project Summary), 1814 (Primary HTS)]; assay type: functional
# [13] = system: H4; assay: Luminescence Cell-Based Dose Response HTS to Identify Activators of 5'UTR Stem-Loop Driven Prion Protein mRNA Translation in H4 Neuroglioblastoma Cells. [Related pubchem assays: 1829 (Project Summary), 1814 (Primary HTS)]; assay type: functional; conditions: Homo sapiens
# [14] = Luminescence Cell-Based Dose Retest to Confirm Inhibitors of Cancer Stem Cells. [Related pubchem assays (depositor defined):AID2717, AID2721]; assay type: functional; conditions: Homo sapiens
# [15] = biological target: T1, RNA-binding protein pos-1 (Caenorhabditis elegans, UniProt G5EF15); assay: inhibitors of POS-1/mex-3 RNA binding, dose response, biochemical, fluorescence polarization (AID 1964);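 further: purified POS-1 fused to maltose binding protein made in E. coli; potency of compounds blocking POS-1 binding to fluorescent RNA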
# T1 sequence (G5EF15 whole entry): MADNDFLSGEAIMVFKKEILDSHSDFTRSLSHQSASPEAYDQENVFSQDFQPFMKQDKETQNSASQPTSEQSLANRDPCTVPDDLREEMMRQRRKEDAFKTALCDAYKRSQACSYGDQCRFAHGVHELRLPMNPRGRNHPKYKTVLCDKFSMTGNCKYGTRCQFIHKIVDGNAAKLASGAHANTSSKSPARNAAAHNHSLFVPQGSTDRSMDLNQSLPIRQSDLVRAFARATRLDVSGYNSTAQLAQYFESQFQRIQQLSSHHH
# [16] = biological target: T2, Zinc finger protein mex-5 (Caenorhabditis elegans, UniProt Q9XUB2); assay: MEX-5/TCR-2 RNA interaction inhibitors, dose response, biochemical, C. elegans, fluorescence polarization (AID 1960)
# T2 sequence (Q9XUB2 whole entry): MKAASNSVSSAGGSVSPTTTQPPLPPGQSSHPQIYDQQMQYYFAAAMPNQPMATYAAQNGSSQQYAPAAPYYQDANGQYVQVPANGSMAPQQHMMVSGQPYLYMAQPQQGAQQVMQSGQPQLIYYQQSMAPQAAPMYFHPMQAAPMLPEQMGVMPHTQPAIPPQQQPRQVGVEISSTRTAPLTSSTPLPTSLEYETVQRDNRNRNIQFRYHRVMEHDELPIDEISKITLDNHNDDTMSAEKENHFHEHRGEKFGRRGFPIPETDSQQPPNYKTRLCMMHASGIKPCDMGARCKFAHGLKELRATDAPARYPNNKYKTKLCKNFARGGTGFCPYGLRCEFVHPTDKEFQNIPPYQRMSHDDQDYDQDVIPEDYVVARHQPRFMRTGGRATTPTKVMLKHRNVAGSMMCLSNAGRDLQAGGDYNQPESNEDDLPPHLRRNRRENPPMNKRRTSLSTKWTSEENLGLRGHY
# [17] = biological target: T3, Replicative DNA helicase DnaB (Mycobacterium tuberculosis, UniProt P9WMR3); assay: DnaB intein splicing inhibitors, dose response, biochemical, cell-free fluorescence (AID 449749); assay type: functional
# T3 sequence (P9WMR3 whole entry): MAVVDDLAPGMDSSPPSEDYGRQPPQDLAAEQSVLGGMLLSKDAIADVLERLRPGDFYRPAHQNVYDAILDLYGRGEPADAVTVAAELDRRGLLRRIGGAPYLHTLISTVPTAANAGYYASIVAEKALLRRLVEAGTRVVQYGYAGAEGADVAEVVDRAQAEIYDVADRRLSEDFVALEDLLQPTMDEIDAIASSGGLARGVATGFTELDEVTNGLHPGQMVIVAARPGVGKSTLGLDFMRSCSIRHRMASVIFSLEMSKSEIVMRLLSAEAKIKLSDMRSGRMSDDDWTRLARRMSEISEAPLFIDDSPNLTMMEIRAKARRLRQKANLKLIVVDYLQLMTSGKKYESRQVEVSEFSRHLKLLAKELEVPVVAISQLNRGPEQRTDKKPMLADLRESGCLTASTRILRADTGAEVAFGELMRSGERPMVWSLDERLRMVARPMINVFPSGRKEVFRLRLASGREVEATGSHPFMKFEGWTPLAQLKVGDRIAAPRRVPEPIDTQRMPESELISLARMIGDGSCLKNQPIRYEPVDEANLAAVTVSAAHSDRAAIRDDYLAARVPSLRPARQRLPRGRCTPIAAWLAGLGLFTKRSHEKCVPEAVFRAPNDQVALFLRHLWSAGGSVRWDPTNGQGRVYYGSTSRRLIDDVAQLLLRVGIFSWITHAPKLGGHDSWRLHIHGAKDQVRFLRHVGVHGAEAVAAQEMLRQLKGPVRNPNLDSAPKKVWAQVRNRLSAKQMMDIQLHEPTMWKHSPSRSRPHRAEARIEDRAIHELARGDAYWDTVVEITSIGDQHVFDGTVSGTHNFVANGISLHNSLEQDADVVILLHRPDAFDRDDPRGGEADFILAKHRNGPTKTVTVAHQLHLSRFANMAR
# [18] = biological target: T4, Protein RecA (Mycobacterium tuberculosis, UniProt P9WHJ3); assay: Fluorescence Cell-Free Homogeneous Dose Retest to Identify Inhibitors of RecA-Intein Splicing Activity. [Related pubchem assays (depositor defined):AID2097, AID2223, AID489010, AID492950]; assay type: functional
# T4 sequence (P9WHJ3 whole entry): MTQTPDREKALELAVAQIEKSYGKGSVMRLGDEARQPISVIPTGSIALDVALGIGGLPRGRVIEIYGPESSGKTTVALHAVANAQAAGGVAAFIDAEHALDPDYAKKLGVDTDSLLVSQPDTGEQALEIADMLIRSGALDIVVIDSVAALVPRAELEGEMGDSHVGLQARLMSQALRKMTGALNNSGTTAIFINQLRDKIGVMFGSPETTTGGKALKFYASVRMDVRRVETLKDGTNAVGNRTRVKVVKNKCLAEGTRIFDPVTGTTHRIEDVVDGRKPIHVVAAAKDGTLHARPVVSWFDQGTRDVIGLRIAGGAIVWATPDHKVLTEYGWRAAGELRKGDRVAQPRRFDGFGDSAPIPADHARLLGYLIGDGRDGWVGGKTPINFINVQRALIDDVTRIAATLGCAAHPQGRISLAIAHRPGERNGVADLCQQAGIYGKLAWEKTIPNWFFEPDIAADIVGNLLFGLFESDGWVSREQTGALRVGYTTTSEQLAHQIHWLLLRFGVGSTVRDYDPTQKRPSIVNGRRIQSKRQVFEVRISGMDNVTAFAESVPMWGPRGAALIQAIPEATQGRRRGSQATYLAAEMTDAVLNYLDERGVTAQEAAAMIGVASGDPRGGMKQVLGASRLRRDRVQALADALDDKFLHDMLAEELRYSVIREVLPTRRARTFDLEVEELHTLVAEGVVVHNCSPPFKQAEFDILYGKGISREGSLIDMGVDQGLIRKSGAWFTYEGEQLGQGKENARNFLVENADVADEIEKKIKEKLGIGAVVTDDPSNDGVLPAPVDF
# [19] = growth suppression of PTEN-null colon cells, dose response, cell-based, HCT116 PTEN knockout (AID 1047); assay type: functional;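 further: HCT116 colon tumor cells with PTEN knocked out; cells exposed to compound for 60 hours before readout; potency for loss of cell viability measured by luminescence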
# [20] = biological target: T5, Corticotropin-releasing factor receptor 2/Corticotropin-releasing factor-binding protein (Homo sapiens, UniProt P24387+Q13324); assay: activators of CRF receptor 2 with binding protein – uHTS hits, confirmation (AID 602473); assay type: functional; conditions: read-out: EC50_Mean
# T5 sequence (Q13324 whole entry): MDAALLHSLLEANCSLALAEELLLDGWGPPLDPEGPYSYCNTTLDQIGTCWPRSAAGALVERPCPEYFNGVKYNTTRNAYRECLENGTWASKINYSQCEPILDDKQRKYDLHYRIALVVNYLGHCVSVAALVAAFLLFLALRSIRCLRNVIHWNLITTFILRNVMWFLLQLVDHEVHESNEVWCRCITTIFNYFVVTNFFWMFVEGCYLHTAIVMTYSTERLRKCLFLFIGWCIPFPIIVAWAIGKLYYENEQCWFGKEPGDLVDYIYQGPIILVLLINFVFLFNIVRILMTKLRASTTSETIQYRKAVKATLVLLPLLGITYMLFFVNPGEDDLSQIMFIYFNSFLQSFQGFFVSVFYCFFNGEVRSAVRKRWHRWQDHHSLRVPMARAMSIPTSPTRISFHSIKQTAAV
# T5 sequence (P24387 whole entry): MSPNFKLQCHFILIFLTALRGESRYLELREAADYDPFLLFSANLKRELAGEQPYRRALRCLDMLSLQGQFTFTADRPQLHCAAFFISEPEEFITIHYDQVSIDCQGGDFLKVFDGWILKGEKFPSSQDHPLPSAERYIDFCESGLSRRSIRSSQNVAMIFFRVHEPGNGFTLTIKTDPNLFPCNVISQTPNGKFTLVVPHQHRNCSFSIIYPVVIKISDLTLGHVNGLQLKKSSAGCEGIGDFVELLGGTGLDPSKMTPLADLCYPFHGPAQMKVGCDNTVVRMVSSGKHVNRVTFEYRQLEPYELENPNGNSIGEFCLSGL
# [21] = system: SN12K1; assay: cells; assay type: functional; conditions: Homo sapiens
# [22] = system: P388; assay: cells; assay type: functional; conditions: Mus musculus;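 further: compound exposure lasted 48 hours before growth was measured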
compound,measurement,setting,value
COc1cc2nc(N3CCN(c4cc(C)ccc4C)CC3)nc(N)c2cc1OC,EC50,[1],> 120 µM (not active)
same,EC50,[2],> 120 µM (not active)
same,EC50,[3],> 120 µM (not active)
same,EC50,[4],3.35 µM (active)
same,CC50,[5],3.41 µM (active)
same,EC50,[6],16.7 µM (active)
same,AC50,[7],7.37 µM (active)
same,AC50,[8],5.44 µM (active)
same,AC50,[9],10.2 µM (active)
same,AC50,[10],12.7 µM (active)
CCOC(=O)N1CCN(c2nc(N(c3ccccc3)c3ccccc3)nc(-n3ccnc3)n2)CC1,CC50,[5],> 40 µM (active)
CC(=O)Nc1cccc(-c2cc(-c3c(Cl)cccc3Cl)no2)c1,CC50,[11],18.3 µM (active)
CCOC(=O)c1cnc(SCc2cccc(C)c2)nc1N,CC50,[11],43.8 µM (active)
O=C(Nc1ccccc1)c1cc2n(n1)C(C(F)(F)F)CC(C1CC1)N2 (stereo not drawn),EC50,[12],5.46 µM (active)
same,EC50,[13],> 120 µM (not active)
Cc1cccnc1N=C(S)NCCc1ccccc1,EC50,[12],21.7 µM (active)
same,EC50,[13],12.9 µM (inconclusive)
C/C(NC(=O)c1cccc(F)c1)=C1/C(=O)C[C@@H]2[C@H]1C2(C)C,EC50,[12],29.7 µM (active)
same,EC50,[13],17.8 µM (active)
same,AC50,[14],1.24 µM (active)
CCCn1c(N2CCN(Cc3ccc(Cl)cc3)CC2)nc2ccccc21,CC50,[5],> 40 µM (active)
Cc1cc[n+](C2=C([N-]S(=O)(=O)c3cccs3)C(=O)c3ccccc3C2=O)cc1C,EC50,[15],> 300 µM (not active)
same,EC50,[16],> 300 µM (not active)
same,EC50,[4],> 60 µM (not active)
same,EC50,[6],> 30 µM (not active)
same,AC50,[17],3.69 µM (active)
same,EC50,[18],3.8 µM (active)
S=C(NCCc1ccc(Cl)cc1)Nc1ccc(Cl)cc1Cl,EC50,[19],30.9 µM (active)
CCCN1CCc2c(sc(NC(=O)c3ccc(S(=O)(=O)N4CCCC4)cc3)c2C(N)=O)C1,EC50,[20],3.22 µM (active)
O=C(Nc1ccc(N2CCOCC2)cc1)c1cc2c(s1)CCCCC2,CC50,[11],23.8 µM (active)
Nc1ncc(CN2CCCC2)c(-c2ccccc2O)n1,GI50,[21],> 100 µM (inactive)
same,GI50,[22],> 100 µM (inactive)
Cc1nn(Cc2ccccc2Cl)c2sc(C(=O)NCCCn3ccnc3)cc12,CC50,[5],> 40 µM (active)
CC(=O)CSc1ncnc2c1cnn2-c1ccccc1,CC50,[11],42.5 µM (active)
Cc1nn(CCc2nn[nH]n2)c2nc(-c3ccc(Br)cc3)cc(C(F)(F)F)c12,CC50,[5],> 40 µM (active)
CO[C@H]1C[C@@H]2CC[C@@H](C)[C@@](O)(O2)C(=O)C(=O)N2CCCC[C@H]2C(=O)O[C@H]([C@H](C)C[C@@H]2CC[C@@H](O)[C@H](OC)C2)CC(=O)[C@H](C)C=C(C)[C@@H](O)[C@@H](OC)C(=O)[C@H](C)C[C@H](C)/C=C/C=C/C=C1C,GI50,[21],0.1 µM (active)
same,GI50,[22],0.1 µM (active)
Cc1ccc(NC(=O)CN(C)CC(=O)Nc2sc3c(c2C(N)=O)CCC3)cc1,CC50,[11],28.1 µM (active)
NC(=O)c1cc(-c2csc(-c3cccnc3)n2)ccc1O,CC50,[11],22.7 µM (active)
COc1ccc(CN2C[C@H](Cc3ccccc3)[C@@H](CC(=O)Nc3ccccc3)C2=O)cc1,CC50,[11],22 µM (active)
CC(C)(C)N1CC2([N+](=O)[O-])CN(C(C)(C)C)CC([N+](=O)[O-])(C1)C2,EC50,[20],4.6 µM (active)
CCOc1ccc(S(=O)(=O)N2CCN(C(=O)c3cc4c(s3)CCCC4)CC2)cc1,CC50,[11],28.8 µM (active)
same,CC50,[5],> 40 µM (active)
